Laboratory results published in PubChem BioAssay (NCI).
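Cultured in 96-well plates, cells were exposed to test compound for 48 hours across five concentrations. At the TGI there is no net growth.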

Key:
Experiment in all cases: growth of human tumour cells (NCI), 48 h
OVCAR-4 ovarian = system: OVCAR-4 ovarian
A549 NSCLC = system: A549 NSCLC
TK-10 renal = system: TK-10 renal
LOX IMVI melanoma = system: LOX IMVI melanoma
786-0 renal = system: 786-0 renal
SNB-19 CNS = system: SNB-19 CNS
HT29 colon = system: HT29 colon
IGROV1 ovarian = system: IGROV1 ovarian
MOLT-4 leukemia = system: MOLT-4 leukemia

In the case of `COC(=O)CC(=O)OC1C[C@@H]2CCC3C(C)(C)CCC[C@]3(C)C23CC[C@@]1(C)C3` (stereo not given in full), the TGI (OVCAR-4 ovarian) is reported as 32.5 µM, the TGI (A549 NSCLC) is reported as 65.1 µM and the TGI (TK-10 renal) is reported as 34.3 µM. The TGI (LOX IMVI melanoma) was 32.3 µM, the TGI (786-0 renal) was 29.9 µM and the TGI (SNB-19 CNS) was 31.6 µM. The TGI (HT29 colon) was 35.1 µM, the TGI (IGROV1 ovarian) was 31.8 µM and the TGI (MOLT-4 leukemia) was over 100 µM.

`N#C/C(=C/c1ccc([N+](=O)[O-])o1)c1ccccc1` showed a TGI (OVCAR-4 ovarian) of over 100 µM, a TGI (A549 NSCLC) of over 100 µM and a TGI (TK-10 renal) of over 100 µM. The TGI (LOX IMVI melanoma) was over 100 µM, the TGI (786-0 renal) was over 100 µM and the TGI (SNB-19 CNS) was over 100 µM. It also gave a TGI (HT29 colon) of over 100 µM and a TGI (MOLT-4 leukemia) of over 100 µM.

`O=C1CCNC/C1=C\c1ccccc1` was tested, and the TGI (OVCAR-4 ovarian) was 31.3 µM, the TGI (A549 NSCLC) was 92.2 µM and the TGI (TK-10 renal) was 61.2 µM. The TGI (LOX IMVI melanoma) was 35.5 µM, the TGI (786-0 renal) was 29 µM and the TGI (SNB-19 CNS) was 46.4 µM. The TGI (HT29 colon) was 32.9 µM, the TGI (IGROV1 ovarian) was over 100 µM and the TGI (MOLT-4 leukemia) was over 100 µM.

With `O=S(c1ccc(O)cc1)c1ccc(O)cc1` the TGI (OVCAR-4 ovarian) was over 100 µM, the TGI (A549 NSCLC) was over 100 µM and the TGI (TK-10 renal) was over 100 µM. For the same compound, the TGI (LOX IMVI melanoma) was over 100 µM, the TGI (786-0 renal) was over 100 µM and the TGI (SNB-19 CNS) was over 100 µM. It also gave a TGI (HT29 colon) of over 100 µM, a TGI (IGROV1 ovarian) of over 100 µM and a TGI (MOLT-4 leukemia) of over 100 µM.

`CCCC(O)c1ccc2[nH]c3c(C)cc([N+](=O)[O-])c(C)c3c2c1` (stereo not given) gave a TGI (OVCAR-4 ovarian) of over 100 µM, a TGI (A549 NSCLC) of over 100 µM and a TGI (TK-10 renal) of over 100 µM. For the same compound, the TGI (LOX IMVI melanoma) was over 100 µM, the TGI (786-0 renal) was over 100 µM and the TGI (SNB-19 CNS) was over 100 µM. The TGI (HT29 colon) was over 100 µM and the TGI (MOLT-4 leukemia) was over 100 µM.

Compound `COc1ccc(N2C(=O)[C@@H]3[C@@H]4CC(C)CC[C@@H]4c4c([nH]c5ccccc45)[C@@H]3C2=O)cc1` (stereo not given in full) has a TGI (OVCAR-4 ovarian) of 37 µM, a TGI (A549 NSCLC) of over 68.3 µM and a TGI (TK-10 renal) of 45.6 µM. It also gave a TGI (LOX IMVI melanoma) of over 87.6 µM, a TGI (786-0 renal) of 20.6 µM and a TGI (SNB-19 CNS) of 29.6 µM. The TGI (HT29 colon) was over 100 µM, the TGI (IGROV1 ovarian) was 49.7 µM and the TGI (MOLT-4 leukemia) was 61.3 µM.

`COC(OC)c1cccc2c1C(=O)CCC1(CC2)OCCCCO1` was tested, and the TGI (OVCAR-4 ovarian) was over 100 µM, the TGI (A549 NSCLC) was over 100 µM and the TGI (TK-10 renal) was over 100 µM. It also gave a TGI (LOX IMVI melanoma) of over 100 µM, a TGI (786-0 renal) of over 100 µM and a TGI (SNB-19 CNS) of over 100 µM. The TGI (HT29 colon) was over 100 µM, the TGI (IGROV1 ovarian) was over 100 µM and the TGI (MOLT-4 leukemia) was over 100 µM.

In the case of `COC1=CC(=O)C2(C=C1OC)OC[C@H]1Oc3c(ccc4c3C=CC(C)(C)O4)C(=O)[C@H]12` (stereo not given in full), the TGI (A549 NSCLC) is reported as over 100 µM, the TGI (TK-10 renal) is reported as over 100 µM and the TGI (LOX IMVI melanoma) is reported as over 100 µM. For the same compound, the TGI (786-0 renal) was over 100 µM, the TGI (SNB-19 CNS) was over 100 µM and the TGI (HT29 colon) was over 100 µM. For the same compound, the TGI (IGROV1 ovarian) was over 100 µM and the TGI (MOLT-4 leukemia) was 85.6 µM.

`CN1C/C(=C\c2ccccc2)C2=NN(C(N)=S)[C@H](c3ccccc3)[C@@H]2C1` showed a TGI (OVCAR-4 ovarian) of over 100 µM, a TGI (A549 NSCLC) of over 100 µM and a TGI (TK-10 renal) of over 100 µM. It also gave a TGI (LOX IMVI melanoma) of over 100 µM, a TGI (786-0 renal) of over 100 µM and a TGI (SNB-19 CNS) of over 100 µM. It also gave a TGI (HT29 colon) of over 100 µM, a TGI (IGROV1 ovarian) of over 100 µM and a TGI (MOLT-4 leukemia) of over 100 µM.

`CC(=O)OC1CCC2(C)C(CCC3C2CCC2(C)C(c4ccc(=O)oc4)C(OC(C)=O)CC32O)C1` (stereo not given) was tested, and the TGI (OVCAR-4 ovarian) was 0.0253 µM, the TGI (A549 NSCLC) was 0.0157 µM and the TGI (LOX IMVI melanoma) was 0.38 µM. For the same compound, the TGI (SNB-19 CNS) was 0.33 µM, the TGI (HT29 colon) was 0.527 µM and the TGI (IGROV1 ovarian) was 0.169 µM. The TGI (MOLT-4 leukemia) was 0.0227 µM.
